Measurements taken from patent US20240360126A1, “PYRAZOLO[3,4-B]PYRIDINE COMPOUNDS FOR THE TREATMENT OF AUTOIMMUNE DISEASE” (Hoffmann-La Roche Inc., priority 2021, published 2024).

Tested on: embryonic stem cells (D3) and 3T3 fibroblasts
Assay: mouse Embryonic Stem Cell Test (mEST)
Assay type: cell-based
Conditions: <0.5 negative, >0.6 positive
Source text: The in vitro mouse Embryonic Stem Cell Test (mEST) assay is an implemented routine assay at Roche. The original EST was developed by Horst Spielmann and his group in 1997 as an in vitro model for the screening of embryotoxicity, based on a blastocyst-derived permanent embryonic mouse ESC (mESC) D3 cell line derived from mouse 129 strains and was validated by European Centre for the Validation of Alternative Methods (ECVAM).
We further optimized and modified the approach allowing for the application of the assay to pharmaceutical compounds.
The cytotoxicity (inhibition of growth) of 3T3 fibroblasts, which represents differentiated cells and the cytotoxicity of undifferentiated embryonic stem cells (D3) after 10 days of substance treatment serve as two assay endpoints. This is determined by the use of dehydrogenase enzymes, which are present in the intact mitochondria of living cells to convert yellow soluble substrate 3-(4,5-dimethythiazol-2-yl)-2,5-diphenyl tetrazolium bromide (MTT) into a dark blue insoluble formazan product, which gets sequestered within the cells and is detected quantitatively using an absorbance reader (570 nm) after solubilizing the cell membrane.
The third endpoint is the inhibition of differentiation of ES cells into myocards which are cardiac muscle cells after 10 days of treatment. The beating of this cells is evaluated by microscopy. […]

SMILES | Predictive scores D12_3
Cc1cc(N2CC[C@@H](c3ncc(N4CCOC[C@@H](N)C4)cc3C)[C@H](C)C2)c2cnn(C)c2n1 [Example 28, (6S)-4-[6-[(3S,4R)-1-(1,6-dimethylpyrazolo[3,4-b]pyridin-4-yl)-3-methyl-4-piperidyl]-5-methyl-3-pyridyl]-1,4-oxazepan-6-amine] | 0.44
Cc1cc(N2CC[C@H](c3ccc(N4CCOC[C@@H](N)C4)cn3)[C@@H](C)C2)c2cnn(C)c2n1 [Example 40, (6S)-4-[6-[(3R,4S)-1-(1,6-dimethylpyrazolo[3,4-b]pyridin-4-yl)-3-methyl-4-piperidyl]-3-pyridyl]-1,4-oxazepan-6-amine] | 0.36
